Results as given in patent US4255183A, “Substituted phenyl urea and herbicides for use in paddy field” (Hokko Chemical Industry Co., Ltd., priority 1977, dated 1981).

Experiments:
[1] = system: Echinochloa crus-galli var. oryzicola; assay: Test Example 1: pot test on selectivity, inhibition of Echinochloa crus-galli var. oryzicola; format: in vivo; details: dry weight 30 days after treatment
Method: (§1) In a Wagner pot of 1/500 are, paddy field soil (alluvial soil) was placed and 50 seeds of Echinochloa crus-galli var. oryzicola and 30 seeds of paddy rice were seeded in the surface layer of said soil and the submerging depth was kept at about 1 cm. When Echinochloa crus-galli var. oryzicola reached at the one leaf stage and 5-leaf stage, the emulsion of a predetermined concentration, prepared according to Example 4 was added dropwise. After 30 days from the treatment with the chemical, dry weights of Echinochloa crus-galli var. oryzicola and paddy rice were measured and the inhibition rate was calculated with reference to untreated area. [formula]
(§2) The comparative chemicals used, i.e. DCMU and Linuron, were those commercially available, and the comparative chemicals A and B used were prepared according to the process for formulating the compound of this invention.

[2] = system: paddy rice; assay: whole plant or invertebrate; format: in vivo, paddy rice (Asahi species); details: granule, 30 days; for Inhibition (%) by treatment at 1-leaf stage of E. crus-galli var. oryzicola, paddy rice: rice at 3.5 leaves stage; for Inhibition (%) by treatment at 5-leaf stage of E. crus-galli var. oryzicola, paddy rice: rice at 7 leaves stage
Method: as §1
(§3) In a concrete pot of 1/400 are (50 cm×50 cm), paddy field soil (alluvial soil) was placed and 200 seeds of Echinochloa crus-galli var. oryzicola were seeded in 10 surface layer of said soil and the soil was submerged at about 3 cm depth. Before emergence of Echinochloa crus-galli var. oryzicola, paddy rice at 2.5-leaf stage (Asahi species) was transplanted at the rate of 8 stubs per pot, planting 3 seedlings per stub. At the one-leaf stage (3.5 leaves stage of paddy rice) and 5 leaves stage (7 leaves stage of paddy rice) of Echinochloa crus-galli var. oryzicola, the granule prepared according to Example 1 was applied. […] 30 Days after the treatment with the chemical, examination was made in the similar manner as Test Example 1 to obtain results as shown in Table 2.
(§4) In the table, as the comparative chemicals CPN, Benthiocarb, Molinate and Simetryne, those commercially available were used and the comparative chemicals A and B (as mentioned before) used were prepared according to the process for preparing the compound of this invention.

[3] = system: Echinochloa crus-galli var. oryzicola; assay: Test Example 2: concrete pot test on killing effect, Echinochloa crus-galli var. oryzicola; format: in vivo; details: granule, 30 days after treatment
Method: as §1, §3, §4

[4] = system: paddy rice; assay: Test Example 1: pot test on selectivity, inhibition of paddy rice; format: in vivo; details: dry weight 30 days after treatment
Method: as §1, with “When Echinochloa crus-galli var. oryzicola reached at the one leaf stage and 5-leaf stage, the emulsion of a predetermined concentration, prepared according to Example 4 was added dropwise.” left out
as §2

Row | Compound | Inhibition (%) by treatment at 1-leaf stage, E. crus-galli var. oryzicola ([1]; 75 g/10 are) | Inhibition (%) by treatment at 5-leaf stage, E. crus-galli var. oryzicola ([1]; 75 g/10 are) | Inhibition (%) by treatment at 1-leaf stage, E. crus-galli var. oryzicola ([1]; 150 g/10 are) | Inhibition (%) by treatment at 5-leaf stage, E. crus-galli var. oryzicola ([1]; 150 g/10 are) | Inhibition (%) by treatment at 1-leaf stage, E. crus-galli var. oryzicola ([1]; 300 g/10 are) | Inhibition (%) by treatment at 5-leaf stage, E. crus-galli var. oryzicola ([1]; 300 g/10 are) | Inhibition (%) by treatment at 1-leaf stage, E. crus-galli var. oryzicola ([1]; 600 g/10 are) | Inhibition (%) by treatment at 5-leaf stage, E. crus-galli var. oryzicola ([1]; 600 g/10 are) | Inhibition (%) by treatment at 1-leaf stage, E. crus-galli var. oryzicola ([1]; 900 g/10 are) | Inhibition (%) by treatment at 5-leaf stage, E. crus-galli var. oryzicola ([1]; 900 g/10 are) | Inhibition (%) by treatment at 1-leaf stage of E. crus-galli var. oryzicola, paddy rice ([2]; 100 g/10 are) | Inhibition (%) by treatment at 5-leaf stage of E. crus-galli var. oryzicola, paddy rice ([2]; 100 g/10 are) | Inhibition (%) by treatment at 1-leaf stage of E. crus-galli var. oryzicola, paddy rice ([2]; 300 g/10 are) | Inhibition (%) by treatment at 5-leaf stage of E. crus-galli var. oryzicola, paddy rice ([2]; 300 g/10 are) | Inhibition (%) by treatment at 1-leaf stage of E. crus-galli var. oryzicola, paddy rice ([2]; 900 g/10 are) | Inhibition (%) by treatment at 5-leaf stage of E. crus-galli var. oryzicola, paddy rice ([2]; 900 g/10 are) | Inhibition (%) by treatment at 1-leaf stage of E. crus-galli var. oryzicola, E. crus-galli var. oryzicola ([3]; 100 g/10 are) | Inhibition (%) by treatment at 5-leaf stage of E. crus-galli var. oryzicola, E. crus-galli var. oryzicola ([3]; 100 g/10 are) | Inhibition (%) by treatment at 1-leaf stage of E. crus-galli var. oryzicola, E. crus-galli var. oryzicola ([3]; 300 g/10 are) | Inhibition (%) by treatment at 5-leaf stage of E. crus-galli var. oryzicola, E. crus-galli var. oryzicola ([3]; 300 g/10 are) | other results
1 | CC(Cl)=CCOc1ccc(NC(=O)N(C)C)cc1 [Comparative chemical A] | 87% | 37% | 100% | 67% | 100% | 82% | 100% | 95% | 100% | 100% | 0% | 0% | 0% | 0% | 23% | 5% | 100% | 48% | 100% | 72% | Inhibition (%) by treatment at 1-leaf stage of E. crus-galli var. oryzicola, E. crus-galli var. oryzicola ([3]; 900 g/10 are): 100%; Inhibition (%) by treatment at 5-leaf stage of E. crus-galli var. oryzicola, E. crus-galli var. oryzicola ([3]; 900 g/10 are): 98%; Inhibition (%) by treatment at 1-leaf stage, paddy rice ([4]; 75 g/10 are): 0%; Inhibition (%) by treatment at 5-leaf stage, paddy rice ([4]; 75 g/10 are): 0%; Inhibition (%) by treatment at 1-leaf stage, paddy rice ([4]; 150 g/10 are): 0%; Inhibition (%) by treatment at 5-leaf stage, paddy rice ([4]; 150 g/10 are): 0%; Inhibition (%) by treatment at 1-leaf stage, paddy rice ([4]; 300 g/10 are): 0%; Inhibition (%) by treatment at 5-leaf stage, paddy rice ([4]; 300 g/10 are): 0%; Inhibition (%) by treatment at 1-leaf stage, paddy rice ([4]; 600 g/10 are): 15%; Inhibition (%) by treatment at 5-leaf stage, paddy rice ([4]; 600 g/10 are): 0%; Inhibition (%) by treatment at 1-leaf stage, paddy rice ([4]; 900 g/10 are): 35%; Inhibition (%) by treatment at 5-leaf stage, paddy rice ([4]; 900 g/10 are): 12%
2 | CNC(=O)Nc1ccc(OCC=C(C)Cl)cc1 [Comparative chemical B] | 10% | 0% | 35% | 0% | 80% | 7% | 100% | 12% | 100% | 36% | 0% | 0% | 0% | 0% | 40% | 7% | 20% | 0% | 75% | 0% | Inhibition (%) by treatment at 1-leaf stage of E. crus-galli var. oryzicola, E. crus-galli var. oryzicola ([3]; 900 g/10 are): 100%; Inhibition (%) by treatment at 5-leaf stage of E. crus-galli var. oryzicola, E. crus-galli var. oryzicola ([3]; 900 g/10 are): 30%; Inhibition (%) by treatment at 1-leaf stage, paddy rice ([4]; 75 g/10 are): 0%; Inhibition (%) by treatment at 5-leaf stage, paddy rice ([4]; 75 g/10 are): 0%; Inhibition (%) by treatment at 1-leaf stage, paddy rice ([4]; 150 g/10 are): 0%; Inhibition (%) by treatment at 5-leaf stage, paddy rice ([4]; 150 g/10 are): 0%; Inhibition (%) by treatment at 1-leaf stage, paddy rice ([4]; 300 g/10 are): 36%; Inhibition (%) by treatment at 5-leaf stage, paddy rice ([4]; 300 g/10 are): 0%; Inhibition (%) by treatment at 1-leaf stage, paddy rice ([4]; 600 g/10 are): 60%; Inhibition (%) by treatment at 5-leaf stage, paddy rice ([4]; 600 g/10 are): 7%; Inhibition (%) by treatment at 1-leaf stage, paddy rice ([4]; 900 g/10 are): 72%; Inhibition (%) by treatment at 5-leaf stage, paddy rice ([4]; 900 g/10 are): 26%
